Experimental data as given in patent US9994509B2, “Inhibitors of viral replication, their process of preparation and their therapeutical uses” (HIVIH, priority 2013, dated 2018).

system: NL4-3 strain of HIV-1; experiment: HIV-1 replication assay: cyto-protection of MT4 cells infected with NL4-3 virus, CellTiter-Glo viability readout; assay type: cell-based; details: Human immunodeficiency virus 1, NL43, 120 h; concentration leading to 50% of cyto-protection; MT4 cells infected with NL4-3 virus; 5 days incubation; CellTiter-Glo; read-out: EC50
Method: The antiviral activity, particularly against HIV, of compounds according to the invention is evaluated by the protocol described below.
Preparation of Virus stock of the NL4-3 strain of HIV-1 (Adachi et al, J Virol, 1986, 59(2):284-91).
The virus was prepared as described in Lopez et al (Lopez et al, Proc Natl Acad Sci USA., 2006, 103(40):14947-52, by transfecting 2×10^6 293 T cells (CRL-1573, ATCC) with following modifications: 6 μg of NL4-3 proviral DNA molecular clone were mixed with X-tremeGENE 9 DNA transfection reagent from Roche, and used according to manufacturer's instructions. Twenty four hours later, cells were washed and fresh medium added. Forty eight hours after transfection, cell supernatants were harvested, filtered through 0.45-μm-pore-size filters, quantified for HIV-1 p24 antigen by using an Innotest HIV antigen mAb assay (Ingen) according to manufacturer's instructions, and used in infection experiments.
Serial dilutions of compounds to be tested were prepared in complete RPMI medium from 10 mM DMSO stock solutions, and distributed in a volume of 20 μl in 96 well tissue-culture treated plates (Costar 3917), in order to get 0.5% DMSO final concentration in each well, after the addition of infected cells. Control wells contained also 0.5% DMSO final concentration but no compound.
MT4 cells (from the NIH AIDS Research and Reference Reagent Program) in RPMI complete medium were counted (10×10^6 cells per well in Falcon 353047 Multiwell™ 24 well) and infected for 2 hours at 37°, at a multiplicity of infection (moi) of 0.0001-0.00001. Cells were then centrifuged for 3 min at 3000 rpm, and washed two times in 1 ml PBS to remove viruses that have not entered the cells. Infected cells were resuspended in complete RPMI at 1.25×10^6 cells/ml, and 80 μl of infected cells were distributed in each well containing compounds to be tested or control wells. The plates were then incubated at 37° C. for 5 days.
Assay used to measure the inhibition of HIV replication by the compounds (according to Gregg S. Jones et al., Antimicrobial Agents and Chemotherapy, 2009, 53 (3): 1194-1203).
After 5 days of incubation, microplates were equilibrated to room temperature for 30 min and then 50 μl of CellTiter-Glo reagent (Promega Biosciences, Inc., Madison Wis., USA) were added to each well. Cell lysis was carried out at room temperature during 10 min and luminescence was read on a Fluoroskan (Thermo Scientific).
The EC50, or effective concentration 50, is the concentration of compound leading to 50% of cyto-protection in a CellTiter-Glo® viability assay based on MT4 cells infected with NL4-3 virus (table 1).

Point of comparison: `Cc1ccc(C2CCC2)c(-c2ccc3c(c2)CCCO3)c1C(OC(C)(C)C)C(=O)O` (stereo not drawn) [Example 43, tert-butoxy-(2-chroman-6-yl-3-cyclobutyl-6-methyl-phenyl)-acetic acid], EC50 94 nM. Against it:
- Cc1ccc(C2CC2)c(-c2ccc3c(c2C)CCCO3)c1[C@H](OC1CC1)C(=O)O (atropisomer, axis not shown) [Example 40, (S)-cyclopropoxy-[3-cyclopropyl-6-methyl-2-(5-methyl-chroman-6-yl)-phenyl]-acetic acid] — 6.7-fold lower, 14 nM
- Cc1ccc(C2CC2)c(-c2ccc3c(c2)CCCO3)c1C(CC1CC1)C(=O)O (stereo not drawn) [Example 45, 3-cyclopropyl-2-[3-cyclopropyl-2-(3,4-dihydro-2H-1-benzopyran-6-yl)-6-methylphenyl]propanoic acid] — 3.1-fold higher, 290 nM
- Cc1ccc(C2CC2)c(-c2ccc3c(c2)CCCO3)c1C(OC1CCC1)C(=O)O (stereo not drawn) [Example 33, (2-chroman-6-yl-3-cyclopropyl-6-methyl-phenyl)-cyclobutoxy-acetic acid] — 4.8-fold higher, 450 nM
- C=Cc1ccc(C(F)(F)F)c(C(OC(C)(C)C)C(=O)O)c1-c1ccc2c(c1)CCCO2 (stereo not drawn) [Example 9, 2-(tert-butoxy)-2-[2-(3,4-dihydro-2H-1-benzopyran-6-yl)-3-ethenyl-6-(trifluoromethyl)phenyl]acetic acid] — 5.3-fold higher, 500 nM
- Cc1ccc(C(C)C)c(-c2ccc3c(c2)CCCO3)c1C(OC(C)(C)C)C(=O)O (stereo not drawn) [Example 5, 2-(tert-butoxy)-2-[2-(3,4-dihydro-2H-1-benzopyran-6-yl)-3-isopropyl-6-methylphenyl]acetic acid] — 4.1-fold lower, 23 nM
- Cc1ccc([C@@H]2C[C@@H]2C)c(-c2ccc3c(c2)CCCO3)c1C(OC(C)(C)C)C(=O)O (relative stereo) [Example 26, tert-Butoxy-[2-chroman-6-yl-6-methyl-3-(cis-2-methyl-cyclopropyl)-phenyl]-acetic acid] — 3.2-fold higher, 300 nM
- Cc1ccc(C2CC2)c(-c2ccc3c(c2)CCCO3)c1C(OCC(F)(F)F)C(=O)O (stereo not drawn) [Example 30, (2-chroman-6-yl-3-cyclopropyl-6-methyl-phenyl)-(2,2,2-trifluoro-ethoxy)-acetic acid] — 9.1-fold higher, 860 nM
- CC(C)(C)OC(C(=O)O)c1c(C(F)(F)F)ccc(C2CCCC2)c1-c1ccc2c(c1)CCCO2 (stereo not drawn) [Example 6, 2-(tert-butoxy)-2-[3-(cyclopentyl)-2-(3,4-dihydro-2H-1-benzopyran-6-yl)-6-(trifluoromethyl)phenyl]acetic acid] — 2.9-fold higher, 270 nM
- C=C(C)c1ccc(C)c(C(OC(C)(C)C)C(=O)O)c1-c1ccc2c(c1)CCCO2 (stereo not drawn) [Example 4, 2-(tert-butoxy)-2-[2-(3,4-dihydro-2H-1-benzopyran-6-yl)-3-isopropenyl-6-methylphenyl]acetic acid] — 2.8-fold lower, 34 nM
- Cc1ccc(C2CC2)c(-c2cc(F)c3c(c2C)CCCO3)c1[C@H](OC1CC1)C(=O)O (atropisomer, axis not shown) [Example 44, (S)-cyclopropoxy-[3-cyclopropyl-2-(8-fluoro-5-methyl-chroman-6-yl)-6-methyl-phenyl]-acetic acid] — 5.5-fold lower, 17 nM
- Cc1ccc(C2CC2)c(-c2ccc3c(c2)CCCO3)c1C(OCC1CC1)C(=O)O (stereo not drawn) [Example 29, (2-chroman-6-yl-3-cyclopropyl-6-methyl-phenyl)-cyclopropyl methoxy-acetic acid] — 5.3-fold higher, 500 nM
- CCc1ccc(C(F)(F)F)c(C(OC(C)(C)C)C(=O)O)c1-c1ccc2c(c1)CCCO2 (stereo not drawn) [Example 11, 2-(tert-butoxy)-2-[2-(3,4-dihydro-2H-1-benzopyran-6-yl)-3-ethyl-6-(trifluoromethyl)phenyl]acetic acid] — 3.8-fold higher, 360 nM
- Cc1ccc(C2(C)CC2)c(-c2ccc3c(c2)CCCO3)c1C(OC(C)(C)C)C(=O)O (stereo not drawn) [Example 25, tert-butoxy-[2-chroman-6-yl-6-methyl-3-(1-methyl-cyclopropyl)-phenyl]-acetic acid] — 2.1-fold higher, 200 nM
- Cc1ccc(C2CC2)c(-c2ccc(Cl)cc2)c1C(OC(C)(C)C)C(=O)O (stereo not drawn) [Example 20, 2-(tert-butoxy)-2-(4′-chloro-6-cyclopropyl-3-methyl-biphenyl-2-yl)acetic acid] — 1.7-fold lower, 54 nM
- COc1c(-c2nc3ccccc3[nH]2)cc(C(F)(F)F)c(C(OC(C)(C)C)C(=O)O)c1-c1ccc2c(c1)CCCO2 (stereo not drawn) [Example 7, 2-[4-(1H-1,3-benzodiazol-2-yl)-2-(3,4-dihydro-2H-1-benzopyran-6-yl)-3-methoxy-6-(trifluoromethyl)phenyl]-2-(tert-butoxy)acetic acid] — 1.5-fold lower, 62 nM
- CCc1cc(C2CC2)c(-c2ccc3c(c2)CCCO3)c(C(OC2CC2)C(=O)O)c1C (stereo not drawn) [Example 57, 2-(2-chroman-6-yl-3-cyclopropyl-5-ethyl-6-methyl-phenyl)-2-(cyclopropoxy)acetic acid] — 6.2-fold higher, 580 nM
- CC(C)(C)OC(C(=O)O)c1c(C(F)(F)F)ccc(OCc2ccccc2)c1-c1ccc2c(c1)CCCO2 (stereo not drawn) [Example 63, 2-[3-(benzyloxy)-2-(3,4-dihydro-2H-1-benzopyran-6-yl)-6-(trifluoromethyl)phenyl]-2-(tert-butoxy)acetic acid, reference compound] — 34-fold higher, 3200 nM
